Patent US11401255B2, “Small molecule activators of Parkin enzyme function” (Mayo Foundation for Medical Education and Research, priority 2016, dated 2022)

How the values were obtained:
TA 1537 = test: Ames Test, strain TA 1537
Description: The test used amino acid-dependent strains of Salmonella typhimurium and Escherichia coli to detect point mutations which involved substitution, addition or deletion of one or a few DNA base pairs. Point mutations were introduced in the histidine (Salmonella typhimurium) or the tryptophan (Escherichia coli) operon, making the tester strains incapable of producing these amino acids. The test detected mutations that revert the mutations present in the bacteria, restoring the functional capability to synthesize histidine or tryptophan. The revertant bacteria were detected by the ability to grow in the absence of the amino acid required by the parent test strain. A mutagenic potential of a tested compound was assessed by exposing these bacterial strains to different concentrations of the compounds and estimating number of revertant colonies grown in the absence (trace quantities) of the amino acid.
DMSO was used as the negative control.
For each experiment, tester strain cultures were grown overnight in Oxoid nutrient broth #2 at 37° C. with shaking at 235 rpm to a density of 1-2×10^9 colony forming units/mL (OD540˜2).
The tester strain (10 μL of night culture) was mixed with the test agent (10 µL of the DMSO stock) and GM liquid medium (30 μL). The obtained mixture was incubated at room temperature for 5 min in a sterile 1.5 mL tube. Then, to the tube was added 200 μL of molten top agar stored at 44° C. to prevent solidifying. After mixing with a pipette, the mixture was poured onto the surface of a GM agar plate (2.0 mL of GM agar per plate). After solidifying the top agar, the plate was inverted and incubated at 37° C. for 48 hours. Then, results were expressed as number of revertant colonies per plate.

FLAG-Parkin C431S = FLAG-Parkin C431S (Homo sapiens (Human), UniProt O60260, C431S); test: Ub-charging of FLAG-Parkin C431S (western blot); format: cell-based; conditions: 5 μM or 1 μM, 2 h before 3.5 μM CCCP
Method: Another measure of Parkin activation is Ub charging of Parkin. Parkin receives Ub from an E2 enzyme to transfer it to a substrate protein. The Ub is bound by Parkin C431 in an unstable thioester bond. A serine substitution of this amino acid (C431S) leads to a stable oxyester bond. The bound Ub can then be visualized as a band shift in Western blot experiments. HeLa 3×FLAG-Parkin C431S cells were seeded in 12-well plates and allowed to attach overnight. Cells were treated with 5 μM (top panels) or 1 μM (bottom panels) of Compounds 1, 2, 3, 4, and 31 2 h before adding CCCP for another 2 h. 10 μM CCCP was added to positive control (PC) wells whereas all other samples received a low dose concentration of 3.5 μM. Cells were harvested in boiling hot SDS lysis buffer and protein concentration was determined by BCA. Samples were split and left either untreated or were treated with NaOH as indicated. Samples were run on an 8-16% Tris-Glycine gel, blotted onto membranes and probed with antibodies against Flag and pS65-Ub. GAPDH served as a loading control. Band shift indicates Parkin binding to Ubiquitin, which is cleavable with NaOH.
Cells were harvested in RIPA buffer or NP-40 lysis buffer containing protease and phosphatase inhibitors (Complete and PhosStop, Roche Applied Science) with the exception of Parkin Ub charging experiments where preheated (95° C.) SDS lysis buffer (50 mM Tris pH 7.6, 150 mM NaCl, 1% SDS) was used. Concentration of cell lysates was determined with bicinchoninic acid (Pierce Biotechnology). For Parkin Ub charging experiments, aliquots of lysates were treated with […] for 1 h at 37° C. pH was neutralized with equinormal HCl.
Protein was subjected to SDS-PAGE using 4-20% or 8-16% Tris-Glycine gels (Invitrogen) and transferred onto polyvinylidene fluoride (PVDF) (Millipore). Membranes were incubated with primary antibodies overnight at 4° C. followed by HRP-conjugated secondary antibodies (1:10,000; Jackson ImmunoResearch Laboratories). Primary antibodies used: beta III tubulin (rabbit, 1:1000, CST, #5568, CST), FLAG (mouse, 1:250,000, Sigma, F3165), GAPDH (mouse, 1:100,000-500,000, Meridian Life science, H86504M), GST (1:10,000, Sigma, G7781), MFN1 (mouse, 1:5,000, Abcam, ab57602), MFN2 (mouse, 1:5,000, Abcam, ab56889), Parkin (mouse, 1:2,000, Cell Signaling, #4211), pSer65-Ub (rabbit, 1:15,000, in-house (Fiesel et al., EMBO Reports (2015) 16:1114-30; Fiesel et al., (2015) Autophagy 11:2125-2126)), TOM70 (rabbit, 1:5,000, Proteintech, 14528-1-AP), UBE2L3 (rabbit, 1:10,000, ProteinTech, 14415-1-AP), VDAC1 (mouse, 1:5,000, Abcam, ab14734), vinculin (mouse, 1:100,000, Sigma, V9131).
HeLa 3×FLAG-Parkin C431S cells were seeded in 6-well plates and allowed to attach overnight. Cells were treated with […] of compounds 5, 21-28, 32, 33, or 43-46 2 h before adding CCCP for another 2 h. 10 VM CCCP was added to positive control (PC) wells, 3.5 μM CCCP to compound (+) and negative control (NC) wells. […] Cells were harvested in boiling hot SDS lysis buffer and protein concentration was determined by BCA. Samples were split and left either untreated or were treated with NaOH as indicated. Samples were run on an 8-16% Tris-Glycine gel, blotted onto membranes and probed with antibodies against Flag. Vinculin served as a loading control. Band shift indicates Parkin binding to Ubiquitin, which is cleavable with NaOH (FIG. 21).

[1] = TA 1537, 50 μM (row printed 100; conc. column shifted)
[2] = TA 1537, 100 μM (row printed 200; conc. column shifted)
[3] = TA 1537, 200 μM (row printed 300; conc. column shifted)

Row | SMILES | Fold increase (over baseline) (TA 1537; [1]) | Mean ± SD (TA 1537; [1]) | Fold increase (over baseline) (TA 1537; [2]) | Mean ± SD (TA 1537; [2]) | Fold increase (over baseline) (TA 1537; [3]) | Ub-charging of FLAG-Parkin C431S (WB) (FLAG-Parkin C431S)
1 | O=C(Cn1cnc2c1CCCC2)Nc1ccc(-c2ccccc2)cc1 [Compound 1] | 0.23 | 0.5 ± 0.7 revertant colonies per plate | 0.45 | 1 ± 1.41 revertant colonies per plate | 0.45 | enhanced Ub-charging
2 | CC(C)c1nccn1CC(=O)Nc1ccc(-c2ccccc2)cc1 [Compound 2] | 0.68 | 1.5 ± 2.12 revertant colonies per plate | 0.45 | 1 ± 0 revertant colonies per plate | 0.23 | enhanced Ub-charging
3 | CC(C)(C)Sc1ccc(NC(=O)Cn2ccnc2)cc1 [Compound 3] | 0.45 | 1 ± 1.41 revertant colonies per plate | 0.23 | 0.5 ± 0.7 revertant colonies per plate | 5.68 | enhanced Ub-charging
4 | O=C(Cn1ccnc1-c1ccccn1)Nc1ccc(-c2ccccc2)cc1 [Compound 4] | 0.23 | 0.5 ± 0.7 revertant colonies per plate | 0 | 0 ± 0 revertant colonies per plate | 0.23 | enhanced Ub-charging
5 | Cc1nc2c(c(N3CCCN(Cc4ccccc4)CC3)n1)CCCC2 [Compound 31] | 0.45 | 1 ± 1.41 revertant colonies per plate | 0 | 0 ± 0 revertant colonies per plate | 0.23 | enhanced Ub-charging
